Assay results as given in ChEMBL document CHEMBL4665787, “Bifunctional and Unusual Amino Acid β- or γ-Ester Prodrugs of Nucleoside Analogues for Improved Affinity to ATB and Enhanced Metabolic Stability: An Application to Floxuridine” (J Med Chem, 2020).
Active and inactive are the calls of the source. The calls are words filed in the database; no cut-off is given here.

Legend:
[1] = Toxicity in NOD SCID nude mouse xenografted with human MDA-MB-231 cells assessed as body weight at 90 mg/kg, iv for 20 days (reference value: 30.1 +/- 4.1g); assay type: organism-based; details: in vivo, 480 h, time 20 day
[2] = biological target: T1, Sodium- and chloride-dependent neutral and basic amino acid transporter B(0+) (Homo sapiens, UniProt Q9UN76); assay: Substrate activity at SLC6A14 (unknown origin) expressed in Xenopus laevis oocytes assessed as ABT0+ mediated drug uptake at 0.5 mM incubated for 10 mins by HPLC analysis; assay type: ADME, cell-based; details: oocyte, 500 µM
T1 sequence (Q9UN76 whole entry): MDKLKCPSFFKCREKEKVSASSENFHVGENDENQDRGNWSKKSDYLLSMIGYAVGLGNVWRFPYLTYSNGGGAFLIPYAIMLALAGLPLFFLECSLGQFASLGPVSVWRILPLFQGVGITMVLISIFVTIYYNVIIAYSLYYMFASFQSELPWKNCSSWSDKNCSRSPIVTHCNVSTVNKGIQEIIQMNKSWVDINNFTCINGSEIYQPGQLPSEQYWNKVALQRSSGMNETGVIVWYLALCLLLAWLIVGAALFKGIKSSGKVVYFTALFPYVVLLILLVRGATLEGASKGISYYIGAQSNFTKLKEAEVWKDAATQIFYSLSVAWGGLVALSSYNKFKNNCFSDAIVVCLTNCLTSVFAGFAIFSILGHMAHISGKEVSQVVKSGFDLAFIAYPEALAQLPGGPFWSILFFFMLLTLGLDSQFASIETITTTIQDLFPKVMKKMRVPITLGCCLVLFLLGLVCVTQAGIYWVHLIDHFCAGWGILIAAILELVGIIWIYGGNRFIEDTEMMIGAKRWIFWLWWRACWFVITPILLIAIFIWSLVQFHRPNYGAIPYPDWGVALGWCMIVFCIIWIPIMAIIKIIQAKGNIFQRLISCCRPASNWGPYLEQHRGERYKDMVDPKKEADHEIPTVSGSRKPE

[3] = Drug uptake in Xenopus laevis oocytes at 0.5 mM incubated for 10 mins by HPLC analysis; assay type: ADME, cell-based; details: oocyte, 500 µM
[4] = Drug uptake in MDCK cells incubated for 10 mins by HPLC analysis; assay type: ADME, cell-based, Canis lupus familiaris; details: dog, 500 µM, dose 0.5 mM
[5] = Selectivity ratio of substrate activity at SLC6A14 (unknown origin) expressed in Xenopus laevis oocytes assessed as ABT0+ mediated drug uptake to drug uptake in Xenopus laevis oocytes; parameters: species or system Oocyte
[6] = Selectivity ratio of substrate activity at PEPT1 (unknown origin) expressed in MDCK cells assessed as PEPT1 mediated drug uptake to drug uptake in MDCK cells
[7] = biological target: T2, Sodium- and chloride-dependent neutral and basic amino acid transporter B(0+) (Homo sapiens) (UniProt Q9UN76); assay: Substrate activity at SLC6A14 (unknown origin) expressed in Xenopus laevis oocytes assessed as inhibition of drug uptake at 0.5 mM incubated for 10 mins in presence of glycine by HPLC analysis relative to control; assay type: cell-based; details: Oocyte
T2 sequence (whole entry): T1 sequence (Q9UN76 whole entry)

[8] = biological target: T2, Sodium- and chloride-dependent neutral and basic amino acid transporter B(0+) (Homo sapiens); assay: Substrate activity at SLC6A14 (unknown origin) expressed in Xenopus laevis oocytes assessed as increase in ABT0+ mediated drug uptake at 1 mM in presence of Na+ ion by HPLC analysis; assay type: cell-based; details: Oocyte
[9] = biological target: T2, Sodium- and chloride-dependent neutral and basic amino acid transporter B(0+) (Homo sapiens); assay: Substrate activity at SLC6A14 (unknown origin) expressed in Xenopus laevis oocytes assessed as increase in ABT0+ mediated drug uptake at 1 mM in presence of Cl- ion by HPLC analysis; assay type: cell-based; details: Oocyte
thymidine phosphorylase = assay: Half life of compound in thymidine phosphorylase buffer at 300 uM by HPLC analysis; assay type: physicochemical
[10] = Half life of compound in human ZR-75-1 cell homogenate; assay type: ADME, tissue-based
[11] = Half life of compound in human MIA PaCa-2 cell homogenate; assay type: ADME, tissue-based
[12] = Half life of compound in human MDA-MB-231 cell homogenate; assay type: ADME, tissue-based
ZR-75-1 = assay: Potency index, ratio of FUdR GI50 to test compound GI50 for growth inhibition of human ZR-75-1 cells; assay type: functional
MIA PaCa-2 [13] = assay: Potency index, ratio of FUdR GI50 to test compound GI50 for growth inhibition of human MIA-PaCa-2 cells; assay type: functional
MDA-MB-231 [14] = assay: Potency index, ratio of FUdR GI50 to test compound GI50 for growth inhibition of human MDA-MB-231 cells; assay type: functional
[15] = Toxicity in NOD SCID nude mouse xenografted with human MIA PaCa-2 cells assessed as body weight at 90 mg/kg, iv for 20 days (reference value: 28.4 +/- 2.1g); assay type: organism-based; details: in vivo, 480 h, time 20 day
MIA PaCa-2 [16] = assay: Antitumour activity against human MIA-PaCa-2 cells xenografted in NOD SCID nude mouse assessed as tumour inhibition at 90 mg/kg, iv administered for 20 days measured every 2 day by caliper method relative to control; assay type: functional; details: MIA PaCa-2, iv, 480 h, time 20 day
MDA-MB-231 [17] = assay: Antitumour activity against human MDA-MB-231 cells xenografted in NOD SCID nude mouse assessed as tumour inhibition at 90 mg/kg, iv administered for 20 days measured every 2 day by caliper method relative to control; assay type: functional; details: MDA-MB-231, iv, 480 h, time 20 day
[18] = Cmax in NOD SCID nude mouse plasma xenografted with ZR-75-1 cells assessed as fluorouracil at 90 mg/kg, iv measured up to 24 hrs by HPLC-MS/MS analysis; assay type: ADME, organism-based; parameters: route intravenous, dose 90 mg/kg, time <=24; details: in vivo
[19] = Cmax in NOD SCID nude mouse tumour xenografted with ZR-75-1 cells assessed as floxuridine; 5-fluoro-2-deoxyuridine concentration at 90 mg/kg, iv measured up to 24 hrs by HPLC-MS/MS analysis; assay type: ADME, organism-based, Neoplasm; parameters: route intravenous, dose 90 mg/kg, time <=24; details: in vivo
[20] = AUC (0 to t) in NOD SCID nude mouse plasma xenografted with ZR-75-1 cells at 90 mg/kg, iv measured up to 24 hrs by HPLC-MS/MS analysis; assay type: ADME, organism-based; parameters: route intravenous, dose 90 mg/kg, time <=24
[21] = AUC (0 to t) in NOD SCID nude mouse plasma xenografted with ZR-75-1 cells assessed as floxuridine; 5-fluoro-2-deoxyuridine AUC at 90 mg/kg, iv measured up to 24 hrs by HPLC-MS/MS analysis; assay type: ADME, organism-based; parameters: route intravenous, dose 90 mg/kg, time <=24; details: in vivo
[22] = AUC (0 to t) in NOD SCID nude mouse tumour xenografted with ZR-75-1 cells assessed as floxuridine; 5-fluoro-2-deoxyuridine AUC at 90 mg/kg, iv measured up to 24 hrs by HPLC-MS/MS analysis; assay type: ADME, organism-based, Neoplasm; details: in vivo
[23] = Ratio of AUC (0 to t) in NOD SCID nude mouse plasma xenografted with ZR-75-1 cells to AUC (0 to t) in NOD SCID mouse tumour xenografted with ZR-75-1 cells; assay type: ADME, cell-free, Tumor/Plasma

Compound: N[C@@H](CC(=O)OC[C@H]1O[C@@H](n2cc(F)c(=O)[nH]c2=O)C[C@@H]1O)C(=O)O
- Activity [1]: 27.6 g
- Drug uptake [2]: 2.97 nmol/mg/min
- Drug uptake [3]: 0.32 nmol/mg/min
- Drug uptake [4]: < 0.04 nmol/mg/min
- Ratio [5]: 9.28
- Ratio [6]: 1
- inhibition [7]: 50%
- Activity [8]: Active
- Activity [9]: Active
- half-life at 300 µM (thymidine phosphorylase): 299 min
- half-life [10]: 13.4 min
- half-life [11]: 16.4 min
- half-life [12]: 11.1 min
- RatioGI50 (ZR-75-1): 7
- RatioGI50 (MIA PaCa-2 [13]): 7
- RatioGI50 (MDA-MB-231 [14]): 7
- Activity [15]: 26.3 g
- inhibition in vivo at 90 mg/kg (MIA PaCa-2 [16]): 62.4%
- inhibition in vivo at 90 mg/kg (MDA-MB-231 [17]): 33.8%
- Cmax [18]: 67.8 ng/mL
- Cmax [19]: 700.2 ng/g
- AUC(0-t) at 24 h [20]: 5070 ng·h/mL
- AUC [21]: 1172.9 ng·h/mL
- AUCt [22]: 4600.1 ng·h/g
- Ratio [23]: 3.9
